US20230028441A1, “NOVEL HETEROARYL-TRIAZOLE COMPOUNDS AS PESTICIDES” (Bayer Aktiengesellschaft, priority 2019, published 2023)

Columns and labels:
Assay type in all cases: in vivo
[1] = test system: green peach aphid (Myzus persicae); experiment: Myzus persicae oral test; conditions: 120 h
Outline: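 Acetone stock (1 pbw compound/100 pbw solvent) diluted in water; mixed with sugar-supplemented IPL41 medium; parafilm-sealed; mixed aphid population sucks through film; mortality % read at 5 d.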

[2] = test system: adult unfed cat fleas (Ctenocephalides felis); experiment: Ctenocephalides felis oral test; conditions: 48 h, 100 ppm in cattle blood, after 2 days
Outline: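 About 20 adult unfed Ctenocephalides felis fed through parafilm on cattle blood dosed with compound (DMSO stock diluted in blood), blood chamber at 37°C, fleas at room temperature. Mortality (%) scored after 2 days; 100% means all fleas killed.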

[3] = test system: adult engorged female ticks (Rhipicephalus microplus); experiment: Rhipicephalus (Boophilus) microplus injection test; conditions: 168 h, egg deposition after 7 days, read-out: efficacy (infertile eggs); for pest or weed control at 0.004 mg: 4 μg/animal; for pest or weed control at 0.02 mg: 20 μg/animal
Outline: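 Compound was dissolved in DMSO at 10 mg per 0.5 mL and diluted with DMSO to the test concentration. Five engorged adult females received a 1 μL abdominal injection and were kept in a climate chamber. After 7 days, fertile egg deposition was scored, with unclear eggs held until hatching at about 42 days; 100% efficacy means all eggs were infertile.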

[4] = test system: adult cat fleas (Ctenocephalides felis); experiment: Ctenocephalides felis in-vitro contact test, adult cat flea; conditions: 5 μg/cm^2 (=500 g/ha), after 48 hours, read-out: efficacy (fleas dead or moribund)
Outline: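 Acetone solutions were coated on glass tube walls, 900 ppm giving 5 μg/cm^2. After drying, 5-10 adult fleas per tube were held 48 h at room temperature. Fleas unable to climb away from a 45-50 °C heating plate within 5 min were scored dead or moribund, as % efficacy.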

[5] = test system: cattle ticks (Rhipicephalus microplus) strain Parkhurst, SP-resistant; experiment: Rhipicephalus (Boophilus) microplus dip test; conditions: 100 ppm, egg deposition after 7 days
Experimental: Test animal: cattle ticks (Rhipicephalus microplus) strain Parkhurst, SP-resistant
Solvent: dimethyl sulfoxide
To produce a suitable preparation of active compound, 10 mg of active compound are dissolved in 0.5 mL solvent, and the concentrate is diluted with water to the desired concentration.
This compound solution is pipetted into tubes. 8-10 engorged, adult, female cattle ticks (Rhipicephalus microplus) are placed in perforated tubes. These tubes are immersed in the aqueous compound solution until the ticks are completely moistened. After the liquid has drained off, the ticks are transferred to a filter paper in a plastic tray and stored in a climate chamber.
After 7 days egg deposition of fertile eggs is monitored. Eggs where fertility is not visible are stored in a climate chamber till hatching after about 42 days. An efficacy of 100% means all eggs are infertile; 0% means all eggs are fertile.

[6] = test system: larvae of the banded cucumber beetle (Diabrotica balteata); experiment: Diabrotica balteata spray test; conditions: 168 h, after 7 days, wheat seeds, read-out: efficacy (seedlings grown up); for pest or weed control at 32 µg/disc, 100 g/ha: 100 g/ha (=32 μg/well); for pest or weed control at 160 µg/disc, 500 g/ha: 500 g/ha (=160 μg/well)
Outline: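 Germinated wheat seedlings (5 per well, agar plates) sprayed with compound in acetone/DMF diluted in water with 1000 ppm emulsifier, then infested with 10-20 larvae per unit. Efficacy scored after 7 days as % seedling growth relative to untreated, uninfested control (100% = normal growth, 0% = none).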

[7] = test system: cattle tick larvae (Rhipicephalus microplus), strain Parkhurst, resistant against synthetic pyrethroids; experiment: Rhipicephalus (Boophilus) microplus in-vitro contact test, larval cattle tick; conditions: 5 μg/cm^2 (=500 g/ha), after 48 hours, read-out: efficacy (larvae dead or moribund)
Outline: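 Acetone solutions of compound were coated on glass tube walls (900 ppm giving 5 μg/cm^2) and dried. 20–50 pyrethroid-resistant Parkhurst larvae were held per tube at 27° C and 85% relative humidity; after 48 h negative geotaxis scored efficacy as percent larvae dead or moribund.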

[8] = test system: fall armyworm larvae (Spodoptera frugiperda); experiment: Spodoptera frugiperda spray test (maize leaf sections); conditions: 168 h
Outline: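 Maize leaf sections were sprayed with compound formulated in acetone/DMF and diluted in water containing 1000 ppm emulsifier. Once dry, sections were infested with fall armyworm larvae. Mortality (%) was scored after 7 days.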

[9] = test system: larvae of the southern green stink bug (Nezara viridula); experiment: Nezara viridula spray test; conditions: in Hordeum vulgare, 96 h
Outline: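 Barley plants infested with Nezara viridula larvae were sprayed with compound in acetone/dimethylformamide, diluted in water containing 1000 ppm alkylarylpolyglycol ether emulsifier. Mortality (%) was scored after 4 days; 100% means all stink bugs killed.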

[10] = test system: adult brown dog ticks (Rhipicephalus sanguineus); experiment: Rhipicephalus sanguineus in-vitro contact test with adult brown dog ticks; conditions: after 48 hours, read-out: efficacy (ticks dead or moribund); for pest or weed control at 1 µg/cm2, 100 g/ha: 1 μg/cm^2 (=100 g/ha); for pest or weed control at 5 µg/cm2, 500 g/ha: 5 μg/cm^2 (=500 g/ha)
Outline: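 Compound in acetone coated onto glass tube inner walls at 900 ppm, giving 5 μg/cm^2. Adult ticks (5-10 per tube) held at room temperature for 48 h, then placed on a 45-50° C. heating plate for up to 5 min. Ticks unable to climb away counted dead or moribund; efficacy given as % dead/moribund.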

[11] = test system: two spotted spidermite (Tetranychus urticae); experiment: Tetranychus urticae spray test, OP-resistant; conditions: foliar, 144 h, after 6 days, French bean leaf disks
Experimental: Solvent: 78.0 parts by weight acetone • 1.5 parts by weight dimethylformamide
Emulsifier: alkylarylpolyglycol ether
To produce a suitable preparation of active compound, 1 part by weight of active compound is mixed with the stated amount of solvents and is diluted with water, containing an emulsifier concentration of 1000 ppm, to the desired concentration. Further test concentrations are prepared by dilution with emulsifier containing water.
French bean (Phaseolus vulgaris) leaf disks infected with all instars of the two spotted spidermite (Tetranychus urticae), are sprayed with a preparation of the active ingredient of the desired concentration.
After 6 days mortality in % is determined. 100% means all spider mites have been killed and 0% means none of the spider mites have been killed.

[12] = test system: green peach aphid (Myzus persicae); experiment: Myzus persicae spray test; conditions: foliar, 120 h, after 5 days, Chinese cabbage leaf disks
Outline: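 Chinese cabbage leaf disks carrying all instars of Myzus persicae were sprayed with compound. The formulation was acetone/dimethylformamide diluted in water with 1000 ppm alkylarylpolyglycol ether emulsifier. Percent mortality was scored after 5 days, with 100% meaning all aphids killed.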

[13] = test system: caterpillars of the fall army worm (Spodoptera frugiperda); experiment: Spodoptera frugiperda spray test (cotton leaves); conditions: 168 h
Outline: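 Cotton leaves sprayed with compound in water/DMF with 1000 ppm alkylaryl polyglycol ether emulsifier, ammonium salt and/or penetration enhancer at 1000 ppm added if necessary, then infested with fall armyworm caterpillars. Mortality in % scored after 7 days; 100% means all caterpillars killed.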

[14] = test system: southern root-knot nematode (Meloidogyne incognita); experiment: Meloidogyne incognita test; conditions: 336 h, after 14 days, read-out: nematicidal activity (gall formation)
Experimental: Solvent: 125.0 parts by weight of acetone
To produce a suitable preparation of active compound, 1 part by weight of active compound is mixed with the stated amount of solvent, and the concentrate is diluted with water to the desired concentration.
Vessels are filled with sand, a solution of the active ingredient, a suspension containing eggs and larvae of the southern root-knot nematode (Meloidogyne incognita) and salad seeds. The salad seeds germinate and the seedlings grow. Galls develop in the roots.
After 14 days the nematicidal activity is determined on the basis of the percentage of gall formation. 100% means no galls were found and 0% means the number of galls found on the roots of the treated plants was equal to that in untreated control plants.

[15] = test system: brown planthopper (Nilaparvata lugens); experiment: Nilaparvata lugens spray test; conditions: in Oryza sativa, 96 h
Outline: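 Rice plants (Oryza sativa) sprayed with compound in acetone/DMF diluted in water containing 1000 ppm alkylarylpolyglycol ether emulsifier, then infested with planthoppers. Mortality % scored after 4 days (100% = all killed, 0% = none killed).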

| SMILES | mortality at 4 ppm [1] [%] | mortality at 100 ppm [2] [%] | pest or weed control at 0.004 mg [3] [%] | pest or weed control at 5 µg/cm2 [4] [%] | efficacy (infertile eggs) [5] [%] | pest or weed control at 32 µg/disc, 100 g/ha [6] [%] | pest or weed control at 5 µg/cm2 [7] [%] | mortality at 100 g/ha [8] [%] | mortality at 100 g/ha [9] [%] | pest or weed control at 1 µg/cm2, 100 g/ha [10] [%] | pest or weed control at 5 µg/cm2, 500 g/ha [10] [%] | mortality at 500 g/ha [11] [%] | pest or weed control at 0.02 mg [3] [%] | mortality at 500 g/ha [8] [%] | mortality at 500 g/ha [9] [%] | mortality at 20 ppm [13] [%] | pest or weed control at 160 µg/disc, 500 g/ha [6] [%] | other results |
| --- | --- | --- | --- | --- | --- | --- | --- | --- | --- | --- | --- | --- | --- | --- | --- | --- | --- | --- |
| CC(NC(=O)c1cc(Cl)cc(C(F)(F)F)c1)c1nc(N)nn1-c1ncccn1 (racemic) [I-004, N-[1-(5-amino-2-pyrimidin-2-yl-1,2,4-triazol-3-yl)ethyl]-3-chloro-5-(trifluoromethyl)benzamide] | 100 | 100 | 100 | 100 | 80 | 100 | 90 | – | – | – | – | – | – | – | – | – | – | – |
| CC(NC(=O)c1cc(C(F)(F)F)cc(C(F)(F)F)c1)c1nc(N(C)C(=O)OC(C)(C)C)nn1-c1ncccn1 (racemic) [I-009, tert-butyl N-[5-[1-[[3,5-bis(trifluoromethyl)benzoyl]amino]ethyl]-1-pyrimidin-2-yl-1,2,4-triazol-3-yl]-N-methyl-carbamate] | 100 | 100 | 100 | 90 | 80 | 100 | 100 | 100 | 100 | 80 | 100 | – | – | – | – | – | – | – |
| CC(NC(=O)c1cc(Cl)cc(C(F)(F)F)c1)c1nc(NC(=O)OC(C)(C)C)nn1-c1ccc(Cl)cn1 (stereo not shown) [I-003] | – | – | 80 | – | – | – | – | – | – | – | – | 90 | 100 | – | – | – | – | – |
| CC(NC(=O)c1cc(Cl)cc(S(C)(=O)=O)c1)c1nc(NC(=O)C2(Cl)CC2)nn1-c1ccc(Cl)cn1 (stereo not shown) [I-012] | 100 | 100 | 100 | – | – | 100 | 100 | 100 | 100 | 100 | 100 | 90 | 100 | 100 | 100 | 100 | 100 | mortality at 500 g/ha ([12]; 500 g/ha): 90% |
| CC(NC(=O)c1cc(Cl)cc(S(C)(=O)=O)c1)c1nc(NC(=O)C2CC2)nn1-c1ccc(Cl)cn1 (stereo not shown) [I-013] | – | 100 | 100 | – | 80 | – | 90 | – | – | – | – | – | 100 | – | – | 100 | – | – |
| CC(NC(=O)c1cc(Cl)cc(C(F)(F)F)c1)c1nc(NC(=O)CC(F)(F)F)nn1-c1ccc(Cl)cn1 (stereo not shown) [I-016] | – | 100 | 100 | – | – | 100 | 100 | 100 | – | – | – | 90 | 100 | 100 | – | 100 | 100 | – |
| CC(NC(=O)c1cc(Cl)cc(C(F)(F)F)c1)c1nc([S+](C)[O-])nn1-c1ccc(Cl)cn1 (stereo not shown) [I-064] | 100 | – | – | – | – | 100 | – | 100 | 100 | – | – | 100 | – | 100 | 100 | – | 100 | pest or weed control at 20 ppm [14]: 90% |
| CNc1nc([C@H](C)NC(=O)c2cc(Br)cc(OC(F)(F)F)c2)n(-c2ncccn2)n1 [I-130] | – | – | – | 100 | – | 100 | 100 | 100 | – | 100 | 100 | – | – | – | 100 | 100 | – | mortality at 100 g/ha ([12]; 100 g/ha): 100%; mortality at 500 g/ha [15]: 90%; pest or weed control at 20 ppm [14]: 90% |
